Where “and” joins values, the source holds several entries; their conditions need not be identical. Equal entries are not always repeated. Entries after “also recorded” stand apart in the source; their conditions may differ. Structures can show the parent of a compound that is named as a salt. Where two headings read alike, the source gives them in different places. Each block holds one compound with its values, some of them ahead of it.
Tests used:
naïve mice = experiment: Mechanical thresholds (von Frey) in naïve (uninjured) mice; conditions: mouse, in vivo
human α2AAR [1] = target: T1, human α2AAR (Homo sapiens (Human), UniProt P08913); experiment: Radioligand competition binding to human α2AAR (HEK293T membranes, [3H]RX82,1002); conditions: for Ki: human α2AAR
T1 sequence (P08913 whole entry): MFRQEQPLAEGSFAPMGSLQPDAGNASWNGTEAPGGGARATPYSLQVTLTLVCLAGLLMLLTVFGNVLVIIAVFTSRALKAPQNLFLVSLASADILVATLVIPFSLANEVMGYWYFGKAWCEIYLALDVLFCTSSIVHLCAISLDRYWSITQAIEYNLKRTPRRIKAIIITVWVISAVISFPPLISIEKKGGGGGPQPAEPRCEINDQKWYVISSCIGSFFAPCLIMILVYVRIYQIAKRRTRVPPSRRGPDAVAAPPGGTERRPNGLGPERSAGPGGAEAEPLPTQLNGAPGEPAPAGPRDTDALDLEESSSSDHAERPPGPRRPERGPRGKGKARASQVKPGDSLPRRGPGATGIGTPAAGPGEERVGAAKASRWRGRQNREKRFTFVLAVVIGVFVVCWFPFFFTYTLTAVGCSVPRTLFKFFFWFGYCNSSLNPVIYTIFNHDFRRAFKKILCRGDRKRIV

human α2AAR [2] = target: T1, human α2AAR; experiment: β-arrestin-2 recruitment, BRET biosensor assay in HEK293T cells; conditions: HEK-293T
[3] = Pharmacokinetics in mice (plasma, brain, CSF); assay type: in vivo
Method: Pharmacokinetics. Pharmacokinetic experiments were performed by Bienta (Enamine Biology Services) in accordance with Enamine pharmacokinetic study protocols and Institutional Animal Care and Use Guidelines (protocol number 1-2/2020). […] In each compound study, nine time points (5, 15, 30, 60, 120, 240, 360, 480 and 1440 min) were collected, each of the time point treatment group included 3 animals. There was also a control group of one animal. In the ‘9087, ‘7075, ‘4622 studies, male C57BL/6N mice were used, for PS75 CD-1 mice, and for ‘2998 male Balb/cAnN mice. For all compound studies the animals were randomly assigned to the treatment groups before the pharmacokinetic study; all animals were fasted for 4 h before dosing. For injections, ‘9087 was dissolved in Captisol—water (40%:60%, w/v), ‘4622 was dissolved in a 20% Kolliphor HS—physiological saline solution, and ‘7075, PS75, and ‘2998 were dissolved in a 20% 2-HPBCD—aqueous solution. The batches of working formulations were prepared 10 minutes prior to the in vivo study.
(§1) Mice were injected i.p. with 2,2,2-tribromoethanol at 150 mg/kg prior to drawing CSF and blood. CSF was collected under a stereomicroscope from cisterna magna using 1 mL syringes. Blood collection was performed from the orbital sinus in microtainers containing K3EDTA. Animals were sacrificed by cervical dislocation after the blood samples collection. Blood samples were centrifuged 10 min at 3000 rpm. Brain samples (right lobe) were weighed and transferred into 1.5 ml tubes. All samples were immediately processed, flash-frozen and stored at −70° C. until subsequent analysis.
Plasma samples (40 μL) were mixed with 200 μL of internal standard (IS) solution. After mixing by pipetting and centrifuging for 4 min at 6000 rpm, 4 μL of each supernatant was injected into the LC-MS/MS system. Solutions of internal standards were used to quantify compounds in the plasma samples. […] After this, the samples were centrifuged for 4 min at 14,000 rpm, and supernatant was injected into LC-MS/MS system. CSF samples (2 μL) were mixed with 40 μL of an internal stock solution. After mixing by pipetting and centrifuging for 4 min at 6,000 rpm, 5 μL of each supernatant was injected into LC-MS/MS system.
(§2) Analyses of plasma, brain and CSF samples were conducted at Enamine/Bienta. The concentrations of compounds in plasma and brain samples were determined using high performance liquid chromatography/tandem mass spectrometry (HPLC-MS/MS). Data acquisition and system control was performed using Analyst 1.5.2 software (AB Sciex, Canada). […] Pharmacokinetic data analysis was performed using noncompartmental, bolus injection or extravascular input analysis models in WinNonlin 5.2 (PharSight).
as §1, with “mL” for “ml”
as §2
Additional pharmacokinetic experiments were performed by Sai Life Sciences (Hyderabad, India) in accordance with the Sai Study Protocol SAIDMPK/PK-22-04-0340. […] Testing was done in C57BL/6 mice.

SNI mice = experiment: Spared-nerve injury (SNI) model of neuropathic pain, von Frey mechanical thresholds; assay type: in vivo; conditions: for Effect of atipamezole on the agonist's effect in SNI mice: atipamezole 2 mg/kg, 15 minutes prior
Method: Spared-nerve injury (SNI) model of neuropathic pain. Under isoflurane anesthesia, two of the three branches of the sciatic nerve were ligated and transected distally, leaving the sural nerve intact. Behavior was tested 7 to 14 days after injury and in situ hybridization was performed one week post-injury.

mice [4] = experiment: Rotarod motor test (motor impairment and sedation); assay type: in vivo
human α2AAR [5] = target: T1, human α2AAR; experiment: α2AAR internalization assay with rGFP-CAAX and rGFP-FYVE biosensors; assay type: cell-based; conditions: α2AAR-RlucII/rGFP-CAAX biosensor
[6] = target: T2, ALPHA-2A ADRENERGIC RECEPTOR (Homo sapiens (Human), UniProt P08913); experiment: Gi recruitment (G protein); assay type: cell-based
T2 sequence (P08913 whole entry): as above

[7] = Metabolic stability in male rat liver microsomes; assay type: in vitro ADME; conditions: 1 hour
mice [8] = experiment: Tail flick (50° C.) acute thermal pain assay; assay type: in vivo
human α2AAR [9] = target: T1, human α2AAR; experiment: Gαi G protein activation, BRET biosensor assay in HEK293T cells; conditions: for Emax: HEK-293T
analgesia in vivo = conditions: result in words, Table 6
α2AAR-Y431^7.43A/F = α2AAR-Y431^7.43A/F (Homo sapiens, UniProt P08913, Y431A); experiment: Gi activation (BRET) at α2AAR Y431^7.43 mutants; assay type: cell-based
Method: (§3) Investigating the sensitivity of selected ligands to the receptor mutants α2AAR-D128^3.32A, α2AAR-D128^3.32T, α2AAR-D128^3.32L, α2AAR-S215^5.42A, α2AAR-Y409^6.55A, α2AAR-Y409^6.55T, α2AAR-Y409^6.55F, α2AAR-F427^7.39F, α2AAR-Y431^7.43A, and α2AAR-Y431^7.43F was determined by monitored G protein stimulation as described above transfecting the appropriate receptor together with Gαi1-RLucII and Gβ1/Gγ1-GFP10. […] Three to ten experiments were done in duplicate.
(§4) The sensitivity of selected ligands to the receptor mutants α2AAR-D128^3.32A, α2AAR-D128^3.32T, α2AAR-D128^3.32L, α2AAR-S215^5.42A, α2AAR-Y409^6.55A, α2AAR-Y409^6.55T, α2AAR-Y409^6.55F, α2AAR-F427^7.39F, α2AAR-Y431^7.43A, and α2AAR-Y431^7.43F was monitored by G protein activation as described above transfecting the appropriate receptor together with Gαi1-RLucII and Gβ1/Gγ2-GFP10. […] Similarly, the effect of the α2AAR-D128^3.32A, α2AAR-S215^5.42A, α2AAR-Y409^6.55A, α2AAR-Y409^6.55F, α2AAR-F427^7.39F, α2AAR-Y431^7.43A, and α2AAR-Y431^7.43F mutations on arrestin recruitment was evaluated as described above transfecting the appropriate receptor together with CAAX-rGFP, GRK2 and β-arrestin-2-RLucII. Data was analyzed as ligand induced changes in BRET compared to vehicle (deltaBRET). Three to seven experiments were done in duplicate.

CFA mice = experiment: Complete Freund's Adjuvant (CFA) inflammatory pain model, Hargreaves test; conditions: mouse, in vivo
[10] = target: T2, ALPHA-2A ADRENERGIC RECEPTOR; experiment: Arrestin recruitment; assay type: cell-based; conditions: Tables 7-9
α2AAR F427^7.39 mutant = α2AAR F427^7.39 mutant (Homo sapiens (Human), UniProt P08913, F427A); experiment: Gi activation (BRET) at α2AAR F427^7.39 mutant; assay type: cell-based
Sequence of α2AAR F427^7.39 mutant (P08913 whole entry F427A): as the sequence (P08913 whole entry) above, with F427A counted along it
Method: as §3, §4

α2CAR = α2CAR (Homo sapiens (Human), UniProt P18825); experiment: Radioligand binding to α2C adrenergic receptor; conditions: saturation binding
Sequence of α2CAR (P18825 whole entry): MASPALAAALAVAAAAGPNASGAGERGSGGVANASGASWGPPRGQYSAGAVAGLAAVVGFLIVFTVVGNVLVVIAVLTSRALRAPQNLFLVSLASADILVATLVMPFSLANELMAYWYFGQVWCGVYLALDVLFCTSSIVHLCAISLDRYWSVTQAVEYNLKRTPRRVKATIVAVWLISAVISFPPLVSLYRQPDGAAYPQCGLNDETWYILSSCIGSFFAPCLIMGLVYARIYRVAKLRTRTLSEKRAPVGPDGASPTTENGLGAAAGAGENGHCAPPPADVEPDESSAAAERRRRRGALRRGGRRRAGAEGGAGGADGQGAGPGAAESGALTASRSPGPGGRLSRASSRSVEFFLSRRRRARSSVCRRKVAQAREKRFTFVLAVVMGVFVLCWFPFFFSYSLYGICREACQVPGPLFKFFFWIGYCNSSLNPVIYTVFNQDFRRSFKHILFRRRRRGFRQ

murine α2AAR = murine α2AAR (Mus musculus (Mouse), UniProt Q01338); experiment: Radioligand competition binding to murine α2AAR; conditions: saturation binding
Sequence of murine α2AAR (Q01338 whole entry): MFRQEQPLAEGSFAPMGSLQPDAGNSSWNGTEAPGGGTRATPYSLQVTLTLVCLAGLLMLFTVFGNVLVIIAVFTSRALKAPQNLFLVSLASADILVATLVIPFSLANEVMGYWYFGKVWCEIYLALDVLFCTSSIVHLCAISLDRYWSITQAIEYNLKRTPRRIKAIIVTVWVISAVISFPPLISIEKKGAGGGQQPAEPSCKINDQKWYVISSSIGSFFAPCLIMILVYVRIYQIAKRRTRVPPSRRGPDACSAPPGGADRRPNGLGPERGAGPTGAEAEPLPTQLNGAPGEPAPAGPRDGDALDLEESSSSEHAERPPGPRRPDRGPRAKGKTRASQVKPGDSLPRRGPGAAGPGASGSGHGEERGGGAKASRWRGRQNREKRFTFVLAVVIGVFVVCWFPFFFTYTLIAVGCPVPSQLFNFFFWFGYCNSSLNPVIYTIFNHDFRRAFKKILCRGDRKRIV

human α2BAR = human α2BAR (Homo sapiens (Human), UniProt P18089); experiment: Radioligand competition binding to human α2BAR; conditions: saturation binding
Sequence of human α2BAR (P18089 whole entry): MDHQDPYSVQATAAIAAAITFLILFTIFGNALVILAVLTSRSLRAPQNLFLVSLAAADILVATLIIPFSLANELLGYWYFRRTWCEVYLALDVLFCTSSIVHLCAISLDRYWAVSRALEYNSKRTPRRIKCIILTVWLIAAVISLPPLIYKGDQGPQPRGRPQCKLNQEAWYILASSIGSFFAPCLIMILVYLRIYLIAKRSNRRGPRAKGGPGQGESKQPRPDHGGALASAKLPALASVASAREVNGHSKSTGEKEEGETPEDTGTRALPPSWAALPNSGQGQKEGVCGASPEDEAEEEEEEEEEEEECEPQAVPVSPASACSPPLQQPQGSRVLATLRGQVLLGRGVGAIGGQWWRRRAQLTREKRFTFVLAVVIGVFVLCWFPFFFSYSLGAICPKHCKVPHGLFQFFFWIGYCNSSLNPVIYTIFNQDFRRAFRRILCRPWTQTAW

[11] = mean ± s.e.m., read-out: Ki for α2AAR
[12] = C57BL/6N ('9087), C57BL/6 (PS75), mouse, plasma, iv, I.V. 10 mg/kg
[13] = C57BL/6N ('9087), C57BL/6 (PS75), mouse, plasma, po, P.O. 30 mg/kg
[14] = C57BL/6N ('9087, '7075, '4622), CD-1 (PS75), mouse, CSF, ip, I.P. 10 mg/kg, read-out: T ½ CSF (converted)
[15] = mouse, brain, ip, I.P. 10 mg/kg, read-out: T ½ Brain (converted)
[16] = mouse, plasma, ip, I.P. 10 mg/kg
[17] = mouse, plasma, ip, I.P. 10 mg/kg, read-out: T ½ Plasma (converted)
[18] = Gαi EC50, BRET biosensor, HEK293T, human α2AAR

Ki (human α2AAR [1]; mean ± SEM (Table 3), read-out: Ki): 8.2 ± 0.48 nM | Ki (human α2AAR [1]; [11]): 8.2 ± 0.48 nM | Emax (human α2AAR [2]; read-out: β-Arr-2 Emax @ 0.1 mM): 15% | Emax at 100 µM (human α2AAR [2]; read-out: β-arrestin-2 Emax @ 0.1 mM): 15 ± 3% | AUC [3, 12]: 3460 ng·h/mL | Cmax [3, 12]: 2590 ng/mL | half-life ([3]; C57BL/6N ('9087), C57BL/6 (PS75), mouse, plasma, iv, I.V. 10 mg/kg, read-out: T ½ Plasma (converted)): 1.64 h | bioavailability ([3]; C57BL/6N ('9087), C57BL/6 (PS75), mouse, plasma, oral, from I.V. 10 mg/kg and P.O. 30 mg/kg dosing): 102% | AUC [3, 13]: 10600 ng·h/mL | Cmax [3, 13]: 2390 ng/mL | half-life ([3]; C57BL/6N ('9087), C57BL/6 (PS75), mouse, plasma, po, P.O. 30 mg/kg, read-out: T ½ Plasma (converted)): 3.17 h | half-life [3, 14]: 2.55 h | AUC Brain ([3]; I.P. 10 mg/kg): 888000 ng·min/mL | AUC CSF ([3]; I.P. 10 mg/kg): 7790 ng·min/mL | Cmax Brain ([3]; I.P. 10 mg/kg): 9200 ng/mL | Cmax CSF ([3]; I.P. 10 mg/kg): 99.3 ng/mL | half-life [3, 15]: 1.07 h | AUC [3, 16]: 927 ng·h/mL | Cmax [3, 16]: 679 ng/mL | half-life [3, 17]: 0.73 h | Disappearance of α2AAR from the plasma membrane (internalization) (human α2AAR [5]): no effect | functional classification (agonist / weak agonist) ([6]; Gi recruitment, Table 6, result in words): agonist | EC50 ([6]; Gi recruitment, Table 6, read-out: EC50): 4.8 nM | Emax ([6]; Gi recruitment, Table 6, read-out: Emax (%)): 79% | Metabolic stability, compound remaining [7]: remain largely unmodified after 1 hour | EC50 (human α2AAR [9]; Gi EC50 ± SE, BRET biosensor, human α2AAR (Table 3)): 4.8 nM | EC50 (human α2AAR [9]; [18]): 4.8 nM | Emax (human α2AAR [9]; read-out: Gi Emax ± SEM): 82% | Emax (human α2AAR [9]; read-out: Gαi Emax): 82% | Fold increased Gi potency compared to ‘9087 (human α2AAR [9]; TFA): 13 fold and 11 fold
SMILES: Clc1ccc2cccc(Nc3ccncc3)c2c1 [PS75, N-(7-Chloronaphthalen-1-yl)pyridin-4-amine x TFA]
Mechanical thresholds of naïve (uninjured) mice (naïve mice): did increase the mechanical thresholds | Effect of atipamezole on the agonist's effect in SNI mice (SNI mice; TFA): not significant reversal; also recorded: partially reversed | Mechanical thresholds / anti-allodynic effect in SNI mice (SNI mice; systemic injection): exhibited anti-allodynic effects | Reversal of mechanical hypersensitivity in SNI mice (SNI mice; systemic injection): completely reversed the mechanical hypersensitivity | Performance in rotarod test (mice [4]; doses up to 20 mg/kg): did not have an effect | Withdrawal latencies, tail flick (mice [8]): increased withdrawal latencies | analgesic in vivo (analgesia in vivo): analgesic in vivo

SMILES: NC[C@H](O)c1ccc(O)c(O)c1 [norepinephrine]
Gi signaling at Y431^7.43A (α2AAR-Y431^7.43A/F): essentially eliminated

SMILES: C1=C(c2ccc3c(c2)CC3)CNCC1 [Compound 4622, 5-(Bicyclo[4.2.0]octa-1,3,5-trien-3-yl)-1,2,3,6-tetrahydropyridine]
Ki (human α2AAR [1]; [11]): 12 ± 3.6 nM | Emax (human α2AAR [2]; read-out: β-arrestin-2 Emax): < 5% | half-life [3, 14]: 14.5 h | AUC Brain ([3]; I.P. 10 mg/kg): 1160000 ng·min/mL | AUC CSF ([3]; I.P. 10 mg/kg): 18400 ng·min/mL | Cmax Brain ([3]; I.P. 10 mg/kg): 16200 ng/mL | Cmax CSF ([3]; I.P. 10 mg/kg): 44.2 ng/mL | half-life [3, 15]: 0.88 h | AUC [3, 16]: 567 ng·h/mL | Cmax [3, 16]: 620 ng/mL | half-life [3, 17]: 1.01 h | Thermal latencies / anti-hyperalgesic effect in CFA model (CFA mice): exhibited anti-hyperalgesic effects | Emax [10]: < 5% | Effect of atipamezole on the agonist's effect in SNI mice (SNI mice): reversed by atipamezole | Mechanical thresholds / anti-allodynic effect in SNI mice (SNI mice; systemic injection): exhibited anti-allodynic effects | Gi activity at F427^7.39 substitution (α2AAR F427^7.39 mutant): eliminated | Motor impairment / sedation in rotarod test (mice [4]; equi-analgesic doses (DEX: higher doses)): slight motor impairment | EC50 [6]: 45 nM | Emax ([6]; Gi recruitment, Tables 7-9, read-out: G protein Emax (%)): 76% | EC50 (human α2AAR [9]; [18]): 9.7 ± 2.4 nM | Emax (human α2AAR [9]; read-out: Gαi Emax): 74 ± 4%

Kd (human α2AAR [1]; saturation binding): 0.54 ± 0.024 nM | Kd (α2CAR): 0.58 ± 0.11 nM | Kd (murine α2AAR): 1.8 ± 0.61 nM | Kd (human α2BAR): 2.3 ± 0.52 nM
SMILES: COC1(C2=NCCN2)COc2ccccc2O1 (stereo not drawn) [[^3H]RX82,1002]

Reference: patent publication US20250032476A1, “ALPHA-2A ADRENERGIC RECEPTOR MODULATORS AND USES THEREOF” (The Regents of the University of California, priority 2021, published 2025)
